Measurements reported in patent US20070066580A1, “Novel aldosterone antagonists and uses thereof” (Recordati Ireland Limited, priority 2005, published 2007).

How the values were obtained:
[1] = biological target: T1, GAL4 DBD-hMR LBD fusion protein (Homo sapiens, UniProt P08235); experiment: Cell-based luciferase assay, agonist mode (CV-1 cells); conditions: 10 μM of compound
T1 construct: expressed in transfected cells; host or cells: CV-1 cells (African green monkey kidney), transient co-transfection with pCMX-GAL4-based vector and Galp3TKLuc reporter
Text: GAL4 DBD-hMR LBD fusion protein expression vector: A pCMX-GAL4-based vector was used for the expression of a fusion protein composed of the amino acids 1-147 of the DNA binding domain of Saccharomyces cerevisiae GAL4 (GAL4 DBD) (SEQ ID NO: 16) and amino acid residues 729-984 of the ligand binding domain of human mineralocorticoid receptor (hMR LBD) (SEQ ID NO: 14). The expression vector contained an expression cassette of the nucleotide sequence for the GAL4 DBD (See SEQ ID NO: 19) ligated to nucleotides 2401 through 3168 of the human mineralocorticoid (hMR) receptor (SEQ ID NO: 13).
In vitro cell culture: CV-1 cells (African green monkey kidney cell line, ATCC accession number CCL-70) were maintained in culture in 90% DMEM medium supplemented by 9% FCS and 1% Penicillin-Streptomycin-L-Glutamine at 37° C. under 8.5% CO2.
These cells were transiently co-transfected with the GAL4 DBD-hMR LBD fusion protein expression vector and the Galp3TKLuc reporter gene vector using the FuGENE 6 Transfection Reagent (Roche) according to the manufacturer's instructions.
Agonist assay: As a positive control, aldosterone (Acros Organics, catalogue # 215360050) was used at a concentration of 100 nM. The negative control sample was 90% DMEM medium supplemented by 9% charcoal-treated FCS and 1% Penicillin-Streptomycin-L-Glutamine containing 0.2% DMSO plus 0.02% ethanol. Positive control, negative control, or 10 μM final concentration of test compound was added to the cells and incubated for 24 hours at 37° C. under 8.5% CO2 before the Luciferase substrate (Promega, catalogue number #E2620) was added. After an incubation period of 5 min at RT, luminescence signals were read on a microplate reader (Molecular Devices/LJL Biosystems). Negative and positive controls were defined as 0% and 100% agonism, respectively. The agonistic potency of test compounds is given in % and was normalized to the positive and negative controls.

aldosterone receptor = biological target: T2, aldosterone receptor (Rattus norvegicus, UniProt P22199); experiment: Kagawa model, urinary Na+/K+ ratio in adrenalectomised rats given aldosterone; assay type: in vivo; conditions: adrenalectomized rats, oral gavage, aldosterone 3 μg/animal s.c.
T2 construct: from tissue; host or cells: whole animal: adrenalectomised male Sprague-Dawley rats
T2 sequence (P22199 1-981): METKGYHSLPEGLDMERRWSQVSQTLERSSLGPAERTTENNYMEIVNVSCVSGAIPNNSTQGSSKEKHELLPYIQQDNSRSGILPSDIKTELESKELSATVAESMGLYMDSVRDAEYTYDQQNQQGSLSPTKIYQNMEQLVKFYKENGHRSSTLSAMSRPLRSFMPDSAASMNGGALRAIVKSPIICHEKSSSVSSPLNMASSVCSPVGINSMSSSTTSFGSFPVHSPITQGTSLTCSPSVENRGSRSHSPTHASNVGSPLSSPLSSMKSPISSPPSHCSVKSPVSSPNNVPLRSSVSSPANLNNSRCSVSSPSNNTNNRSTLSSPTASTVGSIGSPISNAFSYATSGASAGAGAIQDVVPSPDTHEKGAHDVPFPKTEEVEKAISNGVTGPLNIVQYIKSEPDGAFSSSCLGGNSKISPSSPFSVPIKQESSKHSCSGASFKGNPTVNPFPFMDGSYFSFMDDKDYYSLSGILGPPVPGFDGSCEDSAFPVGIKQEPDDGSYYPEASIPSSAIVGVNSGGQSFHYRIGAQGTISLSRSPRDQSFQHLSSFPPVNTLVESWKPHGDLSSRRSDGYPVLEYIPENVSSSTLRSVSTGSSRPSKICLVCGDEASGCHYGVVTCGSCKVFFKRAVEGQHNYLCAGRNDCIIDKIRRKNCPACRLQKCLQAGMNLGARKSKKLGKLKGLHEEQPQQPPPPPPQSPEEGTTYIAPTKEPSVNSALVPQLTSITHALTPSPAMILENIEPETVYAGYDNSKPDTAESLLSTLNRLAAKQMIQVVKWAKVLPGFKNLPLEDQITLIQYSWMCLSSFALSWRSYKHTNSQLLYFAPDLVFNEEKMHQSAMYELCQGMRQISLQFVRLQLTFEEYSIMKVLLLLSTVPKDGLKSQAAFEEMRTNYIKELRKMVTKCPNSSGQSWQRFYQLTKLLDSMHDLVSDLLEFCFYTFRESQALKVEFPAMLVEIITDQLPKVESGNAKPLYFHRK
Text: To evaluate the in vivo activity of test compounds as aldosterone receptor antagonists, the Kagawa model was used, with some modifications. The original model first described by Kagawa (Endocrinology 1960; 67:125-131) has been widely utilised and reported in several published papers.
Bilateral adrenalectomised male Spague-Dawley rats aging approximately 5 weeks and weighing between 150 and 170 g at the time of surgery were obtained from Charles River (UK) Ltd., Margate, Kent. Following adrenalectomy, animals were maintained with standard diet and 0.9% (w/v) saline to drink. Saline replaces sodium ions lost due to the absence of the adrenal glands.
The animals were maintained for three days in standard condition and were trained in metabolic cages on one occasion prior to the test day for approximately 5 hours.
Food was withheld from animals overnight prior to dosing. Saline was available ad libitum.
Approximately 2 hours before dosing, saline was removed from the animals to ensure similar hydration levels. […]
The cumulative urine volume was measured and collected for analysis at 0-3 and 3-6 hours post-aldosterone. Urine was analysed for urinary sodium and potassium concentration. […]
Mean Na^+:K^+ ratios from each group were calculated. […]
The data were analysed using one-way Analysis of Variance (ANOVA). […]

T1 sequence (P08235 with tags, fused parts or gaps limits assumed): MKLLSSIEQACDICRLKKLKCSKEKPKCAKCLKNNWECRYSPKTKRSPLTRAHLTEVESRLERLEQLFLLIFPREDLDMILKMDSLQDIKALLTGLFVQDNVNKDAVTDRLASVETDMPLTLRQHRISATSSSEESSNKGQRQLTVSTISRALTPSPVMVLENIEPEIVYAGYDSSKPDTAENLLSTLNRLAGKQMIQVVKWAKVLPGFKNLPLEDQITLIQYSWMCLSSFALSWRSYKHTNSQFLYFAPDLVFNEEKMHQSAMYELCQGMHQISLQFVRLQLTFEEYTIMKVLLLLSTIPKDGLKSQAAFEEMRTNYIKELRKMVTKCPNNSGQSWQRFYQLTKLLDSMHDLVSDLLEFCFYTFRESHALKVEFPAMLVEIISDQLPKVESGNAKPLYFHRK

CCS[C@@H]1CC2=CC(=O)CC[C@]2(C)C2=CC[C@@]3(C)C(CC[C@@]34CCC(=O)O4)C21 (some centres unmarked) [Example 13]
potency for activation of MR relative to aldosterone [1]: at least three orders of magnitude less potent than aldosterone | urinary Na+/K+ ratio relative to animals only receiving aldosterone (aldosterone receptor): statistically significant increase
